Where a name gives a salt, the structure may show the parent alone.
How the values were obtained:
h-Sortilin = h-Sortilin (Homo sapiens (Human), UniProt Q99523); test: Neurotensin (NTS) scintillation proximity assay (SPA): displacement of [3H]-neurotensin binding; conditions: 150 nM 6his-Sortilin, 5 nM [3H]-Neurotensin; average of at least 2 determinations
Method: The exemplified compounds of the invention were tested in a Neurotensin (NTS) scintillation proximity assay (SPA). NTS, which is a 13 amino acid neuropeptide, is a sortilin ligand. The IC50 is a measure of the amount of the compound required to inhibit the binding of NTS to sortilin by 50%. […] Compound affinity was determined by measuring the displacement of [^3H]-neurotensin binding to h-Sortilin in SPA format. […] IC50 values were calculated by nonlinear regression using the sigmoid concentration-response (variable slope) using CDD Vault software. All values reported are average of at least 2 determinations.

human Sortilin = human Sortilin (Homo sapiens (Human), UniProt Q99523); test: Creoptix (GCI) binding kinetics, human Sortilin; conditions: screened at 1 μM
Method: (§1) A protein, bound to a surface, is bathed in a solution containing potential ligands giving rise to binding kinetics to generate Kon and Koff rates, as well as a Kd.
(§2) All buffers described were filtered using a 0.2 μm filter (Product number: 10300461, Nalgene) and degassed for 15 minutes prior to use.
(§3) A flow cell temperature of 25 degrees Celsius was used throughout the experiment.
(§4) A 4PCH chip was conditioned across all flow cells using 0.2× concentration running buffer (running buffer composition: 1×HBS-N, pH 7.4, 3.4 mM EDTA, 1% DMSO) using pre-set conditioning wizard (WAVE control software) injecting: 0.1 M borate, 1 M NaCl (pH 9) followed by three start-up injections of 0.2× running buffer.
(§5) A buffer exchange was performed and 1× running buffer (1×HBS-N, pH 7.4, 3.4 mM EDTA, 1% DMSO) used during the immobilisation procedure:
(§6) An initial injection of EDC/NHS (mixed in 1:1 ratio) was performed across all 4-flow cells to activate the surface for amine coupling of ligands.
Recombinant Sortilin aliquots were thawed quickly by hand and centrifuged at 13,300 rpm for 10 minutes. A 10 μg/ml protein solution was then made in pH 5.0 acetate and injected once for 20 minutes over flow-cells 2, 3 and 4 for human, human (flow cells 2 & 3), and mouse Sortilin respectively followed by a 60 second dissociation period.
A final 7-minute passivation injection of 50 mM tris was used across all flow cells.
A flow rate of 10 μl/min was used for all conditioning and immobilisation cycles.
Compounds were screened at 1 μM using the in-built ‘intermediate binders’ settings: 100 ul/min, 45 s baseline, 25 s association, 300 s dissociation, with blanks every 5th sample and a DMSO correction (1.5% DMSO at the start and end of the experiment as well as every 20 cycles. An acquisition rate of 10 Hz was used throughout the experiment.
Compounds were screened at a final assay concentration of 1 μM and a final DMSO concentration was 1%. To achieve this, compounds were diluted in DMSO from 10 mM stocks to 100 μM (100×final assay concentration) then diluted 1:100 in running buffer which contained no DMSO to establish a final assay concentration of compound of 1 μM and a final DMSO concentration of 1% [DMSO].
Compounds and DMSO were mixed by plate shaking at 1000 rpm for 60 seconds using a Bioshake instrument.
A flow rate of 100 μl/min was used throughout the experiment.
(§7) Data was evaluated using the RAPID kinetic analysis tool in the GCI WAVE_control software with data fitted using a standard 1:1 kinetic BioModel.

[1] = Blood-brain-barrier permeability of study compounds in mice after PO administration; conditions: mouse; for concentration at 1 h: po, T = 1 hour; for blood brain barrier penetration: conclusion in words; for Kp uu at 1 h: brain and plasma (unbound concentrations), oral, Kpuu, ratio of unbound brain to unbound plasma concentration
Method: (§12) Separately, the fraction of compound bound to plasma protein or brain homogenate was measured to allow assessment of free fractions.
(§13) In practice, unbound fractions in plasma and brain tissue were assessed using rapid equilibrium dialysis in vitro. Separately a pharmacokinetic study was run in vivo whereby a dose of the compound of interest was given at T=0 hours and at subsequent timepoints (eg 0.5, 1 and 4 hours) plasma and separately brain samples were analysed for total concentration of the compound of interest. These total concentrations could then be adjusted with the unbound fraction to give the unbound concentrations in the plasma and brain. The unbound partition coefficient (Kpuu) was then determined as a ratio between the free compound concentrations in the compartment of interest, here the brain/CNS and the plasma.
(§14) The compound is administered to the animal in a suitable vehicle at T=0 hours. At one hour post administration plasma and separately brain are removed, prepared and analysed for total compound concentration.
(§15) Mouse brain samples were prepared for analysis by homogenization with Omni bead ruptor, using 4-fold volume of 150 mM phosphate buffered saline (PBS) (E.g. 400 uL PBS+100 mg brain). After homogenization, a 30 μL homogenate sample was mixed with 60 μL of internal standard solution (100 ng/ml of repaglinide and phenacetin in acetonitrile (ACN) containing 1% formic acid) and mixed. Samples were centrifuged for 20 minutes (4000 rpm, Thermo Scientific SL16) and 50 μl of supernatant, together with 100 μl of 50% acetonitrile was transferred on an analytical plate. Standard samples were prepared by spiking blank brain homogenate to obtain concentrations from 0.1 to 10 000 ng/ml in brain homogenate by using one volume of spiking solution and nine volumes of blank homogenate. Quality control (QC) samples were prepared for concentrations at 3, 30, 300 and 3000 ng/ml by using one volume of spiking solution and nine volumes of blank brain homogenate. The standards and QCs were then prepared for analysis similarly as the samples. Blank brain matrix was collected in-house from CD-1 mice.
(§16) The samples were prepared by mixing 30 μL of plasma sample with 60 μL of internal standard solution (100 ng/ml of repaglinide and phenacetin in ACN with 1% of formic acid) and mixed. Samples were centrifuged for 20 minutes (4000 rpm, Thermo Scientific SL16) and 50 μl of supernatant, together with 100 μl of 50% acetonitrile was transferred on analytical plate. 10 μl of diluted samples were transferred on analytical plate and further diluted with 190 μl of 50% acetonitrile. Standard samples were prepared by spiking blank plasma to obtain concentrations from 0.1 to 10 000 ng/ml in plasma by using one volume of spiking solution and nine volumes of blank plasma. Quality control (QC) samples were prepared for concentrations at 3, 30, 300 and 3000 ng/ml by using one volume of spiking solution and nine volumes of plasma. The standards and QCs were then prepared for analysis similarly as the samples. Blank plasma was collected in-house from CD-1 mice.
(§17) Instrumentation: Waters Acquity UPLC+Waters TQ-S triple quadrupole MS; Column: Waters Acquity HSS T3 (2.1×50 mm, 1.8 μm) column with pre-column filter; Gradient Elution; A=0.1% Formic acid, B=Acetonitrile

in vivo = conditions: mouse, Kpuu
Method: as §12, §13, §14, §15, §16, §17

[2] = Brain homogenate binding by rapid equilibrium dialysis; assay type: in vitro ADME; conditions: 37° C.; for Mouse Brain Unbound (Fu, %): 5 μM, 4 hours, dilution factor 5; for fraction unbound at 4 h, 5 μM: CD1, pH 7.4, mouse brain homogenate, dilution factor 5, read-out: Mouse Brain Unbound (Fu, %)
Method: (§8) Rapid Equilibrium Dialysis The test compounds were incubated in CD1-mouse plasma and brain homogenate at 37° C. in RED device with inserts (8K MWCO, Thermo scientific) for 4 hours at 5 μM in triplicates. 350 μL of 150 mM phosphate buffered saline (PBS, pH 7.4) was used as the receiver side solutions. The samples were collected from both sides after 4 hours equilibration time and their matrices were made similar by diluting the donor side sample using blank PBS, and by diluting the receiver side sample using blank plasma/phosphate buffered saline. After the incubation, aliquots of donor side matrixes were diluted with an equal volume of the blank receiver side matrix and aliquots of receiver side matrixes were diluted with an equal volume of blank donor side matrix. All samples were protein precipitated by addition of a two-fold volume of acetonitrile containing 100 nM of repaglinide as an internal standard. After 10-minute centrifugation at 13 200 rpm, the sample supernatants were analysed with an LC-MS/MS, to obtain the unbound fraction of the test compound (Fub). The unbound fraction was calculated from the peak area ratios obtained for each matrix: […]
(§9) Recovery samples were prepared in each condition but without dialysis, and were used for evaluation of recovery from the dialysis experiment using following formula: […]
(§10) where VPBS is the volume on the receiver side (PBS) and Vplasma is the volume on donor side (plasma) of the dialysis device. Crecovery is the analyte concentration measured from the recovery sample.
(§11) Propranolol (1 μM) and fluoxetine (5 μM) were included in the experiment as a control compounds.
The unbound fraction in brain (Fub, brain) was calculated from the measured value in brain homogenate (Fub, meas), taking into account the dilution factor used in preparing the brain homogenate:
where D=dilution factor (here 5).

[3] = Plasma protein binding by rapid equilibrium dialysis; assay type: in vitro ADME; conditions: 37° C.; for Mouse Plasma Unbound (Fu, %): CD1-mouse plasma, 5 μM, 4 hours; for fraction unbound at 4 h, 5 μM: pH 7.4, CD1-mouse plasma, read-out: Mouse Plasma Unbound (Fu, %)
Method: as §8
where CPBS and Cplasma are the analyte concentrations in PBS (receiver) and plasma (donor), respectively.
as §9, §10, §11

mouse Sortilin = mouse Sortilin (Mus musculus (Mouse), UniProt Q6PHU5); test: Creoptix (GCI) binding kinetics, mouse Sortilin; conditions: screened at 1 μM
Method: as §1, §2, §3, §4, §5, §6
Recombinant Sortilin aliquots were thawed quickly by hand and centrifuged at 13,300 rpm for 10 minutes. […]
as §7

[4] = brain, Brain Tissue Concentration (ng/g) T = 1 hour
[5] = brain, Unbound Brain Concentration (ng/mL) T = 1 hour
[6] = plasma, Total Plasma Concentration (ng/ml) T = 1 hour
[7] = plasma, Unbound Plasma Concentration (ng/mL) T = 1 hour

h-Sortilin, sequence (Q99523 78-831): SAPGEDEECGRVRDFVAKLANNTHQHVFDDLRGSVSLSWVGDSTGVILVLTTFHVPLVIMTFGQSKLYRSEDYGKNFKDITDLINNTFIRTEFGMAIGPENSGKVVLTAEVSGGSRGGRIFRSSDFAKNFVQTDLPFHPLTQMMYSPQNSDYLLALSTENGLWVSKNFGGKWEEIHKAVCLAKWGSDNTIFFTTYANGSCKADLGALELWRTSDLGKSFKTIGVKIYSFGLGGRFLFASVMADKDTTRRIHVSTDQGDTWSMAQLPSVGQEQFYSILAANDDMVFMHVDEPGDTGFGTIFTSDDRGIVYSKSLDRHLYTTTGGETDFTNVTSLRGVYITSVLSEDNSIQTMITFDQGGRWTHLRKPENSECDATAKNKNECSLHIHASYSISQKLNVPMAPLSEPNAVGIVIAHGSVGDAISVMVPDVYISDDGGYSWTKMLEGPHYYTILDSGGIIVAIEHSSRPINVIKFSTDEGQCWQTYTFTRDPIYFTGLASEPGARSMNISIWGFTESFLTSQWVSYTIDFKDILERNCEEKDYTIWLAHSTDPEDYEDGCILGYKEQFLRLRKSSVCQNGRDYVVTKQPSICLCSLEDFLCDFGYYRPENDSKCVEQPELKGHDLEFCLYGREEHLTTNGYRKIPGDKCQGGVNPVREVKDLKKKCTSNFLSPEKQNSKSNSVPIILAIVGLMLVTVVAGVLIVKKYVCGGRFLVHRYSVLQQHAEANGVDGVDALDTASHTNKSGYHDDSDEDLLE
human Sortilin, sequence (Q99523 78-755): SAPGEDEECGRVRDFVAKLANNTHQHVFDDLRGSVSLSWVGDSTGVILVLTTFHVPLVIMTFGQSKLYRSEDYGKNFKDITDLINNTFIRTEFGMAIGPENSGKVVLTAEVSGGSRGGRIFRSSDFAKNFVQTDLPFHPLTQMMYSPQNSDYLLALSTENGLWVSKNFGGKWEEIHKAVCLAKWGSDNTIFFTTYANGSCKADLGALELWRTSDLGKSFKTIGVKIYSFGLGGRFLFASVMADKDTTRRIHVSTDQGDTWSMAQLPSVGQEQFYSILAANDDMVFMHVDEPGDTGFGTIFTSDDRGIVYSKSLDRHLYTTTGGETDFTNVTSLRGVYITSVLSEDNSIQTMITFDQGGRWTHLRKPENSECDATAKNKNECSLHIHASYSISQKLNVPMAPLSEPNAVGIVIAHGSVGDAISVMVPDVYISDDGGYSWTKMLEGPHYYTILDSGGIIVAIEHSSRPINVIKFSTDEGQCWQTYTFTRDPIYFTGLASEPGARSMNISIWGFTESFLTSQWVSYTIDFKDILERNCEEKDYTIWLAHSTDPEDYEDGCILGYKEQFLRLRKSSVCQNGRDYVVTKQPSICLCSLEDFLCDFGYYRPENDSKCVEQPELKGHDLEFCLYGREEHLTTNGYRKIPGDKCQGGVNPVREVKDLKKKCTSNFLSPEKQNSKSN
mouse Sortilin, sequence (Q6PHU5 76-753): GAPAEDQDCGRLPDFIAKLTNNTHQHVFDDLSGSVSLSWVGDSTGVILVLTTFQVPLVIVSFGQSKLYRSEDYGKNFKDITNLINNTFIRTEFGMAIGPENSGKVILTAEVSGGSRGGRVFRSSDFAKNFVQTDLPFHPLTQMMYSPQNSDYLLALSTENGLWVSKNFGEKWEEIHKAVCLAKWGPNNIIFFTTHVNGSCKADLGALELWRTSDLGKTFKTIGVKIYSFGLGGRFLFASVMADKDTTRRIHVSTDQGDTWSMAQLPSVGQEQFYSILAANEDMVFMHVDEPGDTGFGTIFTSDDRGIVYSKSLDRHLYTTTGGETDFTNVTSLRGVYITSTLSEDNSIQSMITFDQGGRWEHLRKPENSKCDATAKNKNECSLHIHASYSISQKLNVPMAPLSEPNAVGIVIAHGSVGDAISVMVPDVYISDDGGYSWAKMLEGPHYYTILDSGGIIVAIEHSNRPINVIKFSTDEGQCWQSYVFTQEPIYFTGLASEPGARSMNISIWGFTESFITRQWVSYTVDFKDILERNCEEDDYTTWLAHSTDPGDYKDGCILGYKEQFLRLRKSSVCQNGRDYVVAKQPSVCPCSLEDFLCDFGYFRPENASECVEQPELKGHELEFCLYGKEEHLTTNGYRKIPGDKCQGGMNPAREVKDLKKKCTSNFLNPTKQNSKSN

Compound | IC50 (h-Sortilin) | Kd (human Sortilin; Free acid) | other results
COc1cccc([C@H](N[C@@H](CCC(C)(C)C)C(=O)O)C(F)F)c1 [Example 21, (2S)-2-{[(1S)-2,2-difluoro-1-(3-methoxyphenyl)ethyl]amino}-5,5-dimethylhexanoic acid] | 270 nM | 284 nM | 
Cc1cccc(NC(=O)c2ccc(C(F)(F)F)cc2C(=O)O)n1 [Comparative Example 1, reference compound] |  |  | concentration at 1 h [1, 4]: 0.9 ng/g; concentration at 1 h [1, 5]: 0.2 ng/mL; concentration at 1 h [1, 6]: 393 ng/mL; concentration at 1 h [1, 7]: 27 ng/mL; blood brain barrier penetration [1]: did not show a blood brain barrier penetration; Kp uu at 1 h (in vivo): < 0.1
Cn1ccc2c(CN[C@@H](CCC(C)(C)C)C(=O)O)cccc21 [Example 6, (S)-5,5-dimethyl-2-(((1-methyl-1H-indol-4-yl)methyl)amino)hexanoic acid hydrochloride] | 330 nM |  | Kp uu at 1 h [1]: > 0.1; concentration at 1 h [1, 4]: 6.25 ng/g; concentration at 1 h [1, 5]: 1.4 ng/mL; concentration at 1 h [1, 6]: 138 ng/mL; concentration at 1 h [1, 7]: 8 ng/mL; blood brain barrier penetration [1]: permeate the blood brain barrier; Mouse Brain Unbound (Fu, %) [2]: 22.9%; fraction unbound at 4 h, 5 μM [2]: 0.229; Mouse Plasma Unbound (Fu, %) [3]: 5.8%; fraction unbound at 4 h, 5 μM [3]: 0.058
CC(C)(C)CC[C@H](NCc1cnc2cccnc2c1)C(=O)O [Example 103, (2S)-5,5-dimethyl-2-{[(1,5-naphthyridin-3-yl)methyl]amino}hexanoic acid] | 160 nM | 83.2 nM | 
CC(C)(C)CC[C@H](NCc1cnc2ccccc2c1)C(=O)O [Example 35, (2S)-5,5-dimethyl-2-{[(quinolin-3-yl)methyl]amino}hexanoic acid] | 650 nM | 895 nM | Kd (mouse Sortilin; Free acid): 1050 nM
COc1cccc([C@@H](N[C@@H](CCC(C)(C)C)C(=O)O)C(F)(F)F)c1 [Example 23, (2S)-5,5-dimethyl-2-{[(1R)-2,2,2-trifluoro-1-(3-methoxyphenyl)ethyl]amino}hexanoic acid] | 390 nM | 4020 nM | 
COc1ccc([C@@H](N[C@@H](CCC(C)(C)C)C(=O)O)C(F)(F)F)cc1OC [Example 115, (2S)-2-{[(1R)-1-(3,4-dimethoxyphenyl)-2,2,2-trifluoroethyl]amino}-5,5-dimethylhexanoic acid] | 420 nM | 351 nM | 
Cc1ccc(CN[C@@H](CCC(C)(C)C)C(=O)O)c2ccn(C)c12 [Example 131, (S)-2-(((1,7-dimethyl-1H-indol-4-yl)methyl)amino)-5,5-dimethylhexanoic acid, Mesylic acid] | 380 nM | 97.6 nM | 
COc1ccc([C@@H](N[C@@H](CCC(C)(C)C)C(=O)O)C(F)F)cc1OC [Example 113, (2S)-2-{[(1R)-1-(3,4-dimethoxyphenyl)-2,2-difluoroethyl]amino}-5,5-dimethylhexanoic acid] | 320 nM | 625 nM | 

Now from value to molecule, other results behind:

IC50 (h-Sortilin) | Kd (human Sortilin; Free acid) | Compound | other results
950 nM | 3390 nM | COc1cc(CN[C@@H](CCC(C)(C)C)C(=O)O)ccc1F [Example 74, (2S)-2-{[(4-fluoro-3-methoxyphenyl)methyl]amino}-5,5-dimethylhexanoic acid] | 
520 nM | 432 nM | COc1cc(Br)cc(CN[C@@H](CCC(C)(C)C)C(=O)O)c1 [Example 31, (2S)-2-{[(3-bromo-5-methoxyphenyl)methyl]amino}-5,5-dimethylhexanoic acid] | 
410 nM | 1980 nM | CC(C)(C)CC[C@H](NCc1cncnc1)C(=O)O [Example 55, (2S)-5,5-dimethyl-2-{[(pyrimidin-5-yl)methyl]amino}hexanoic acid] | 
850 nM | 456 nM | COc1ccc(F)c(CN[C@@H](CCC(C)(C)C)C(=O)O)c1 [Example 140, (2S)-2-{[(2-fluoro-5-methoxyphenyl)methyl]amino}-5,5-dimethylhexanoic acid] | 
560 nM | 1930 nM | COc1cccc(CN[C@@H](CCC(C)(C)C)C(=O)O)c1.Cl [Example 5, (2S)-2-{[(3-methoxyphenyl)methyl]amino}-5,5-dimethylhexanoic acid] | Kp uu at 1 h [1]: > 0.1; concentration at 1 h [1, 4]: 48.5 ng/g; concentration at 1 h [1, 5]: 14 ng/mL; concentration at 1 h [1, 6]: 3560 ng/mL; concentration at 1 h [1, 7]: 117 ng/mL; blood brain barrier penetration [1]: permeate the blood brain barrier; Mouse Brain Unbound (Fu, %) [2]: 29.1%; fraction unbound at 4 h, 5 μM [2]: 0.291; Kd (mouse Sortilin; HCl salt): 1020 nM; Mouse Plasma Unbound (Fu, %) [3]: 3.3%; fraction unbound at 4 h, 5 μM [3]: 0.033; Kd (human Sortilin; Ms salt): 423 nM; Kd (human Sortilin; MsOH salt): 396 nM
980 nM | 443 nM | COc1cccc(CN[C@@H](CCC(C)(C)C)C(=O)O)c1C [Example 75, (2S)-2-{[(3-methoxy-2-methylphenyl)methyl]amino}-5,5-dimethylhexanoic acid] | 
390 nM |  | Cc1ccc(CN[C@@H](CCC(C)(C)C)C(=O)O)cc1Cl [Example 129, (2S)-2-{[(3-chloro-4-methylphenyl)methyl]amino}-5,5-dimethylhexanoic acid] | Kd (human Sortilin; Ms salt): 512 nM
1360 nM | 747 nM | COc1ccc(CN[C@@H](CCC(C)(C)C)C(=O)O)cc1OC [Example 38, (2S)-2-{[(3,4-dimethoxyphenyl)methyl]amino}-5,5-dimethylhexanoic acid] | 
2220 nM | 1020 nM | COc1ccc(OC)c(CN[C@@H](CCC(C)(C)C)C(=O)O)c1 [Example 28, (2S)-2-{[(2,5-dimethoxyphenyl)methyl]amino}-5,5-dimethylhexanoic acid] | 
550 nM | 571 nM | COc1cc(F)cc(CN[C@@H](CCC(C)(C)C)C(=O)O)c1 [Example 29, (2S)-2-{[(3-fluoro-5-methoxyphenyl)methyl]amino}-5,5-dimethylhexanoic acid] | 

— patent publication US20250268854A1, “2-AMINO-5,5-DIMETHYLHEXANOIC ACID DERIVATIVES AS SORTILIN MODULATORS FOR USE IN THE TREATMENT OF DISEASE OF THE CENTRAL NERVOUS SYSTEM” (c/o Vesper Bio ApS, priority 2021, published 2025)
